Measurements: patent US9725445B2, “Cycloalkyl nitrile pyrazolo pyridones as Janus kinase inhibitors” (Merck Sharp & Dohme Corp., priority 2013, dated 2017)

Key:
JAK2 = JAK2 (Homo sapiens (Human), UniProt O60674); assay: Jak biochemical HTRF assay, JAK2; conditions: HTRF biochemical assay, recombinant GST-tagged catalytic domain; read-out: JAK2 IC50
Procedure: Jak Biochemical HTRF Assay Protocol
The ability of compounds to inhibit the activity of JAK1, JAK2, JAK3, and Tyk2 was measured using a recombinant purified GST-tagged catalytic domain for each enzyme (Invitrogen JAK1 #M4290, JAK2 #M4290, JAK3 #M4290, Tyk2 #M4290) in an HTRF format biochemical assay. […] The basic assay protocol is as follows: First, 250 nL of diluted compounds in DMSO were dispensed into the wells of a dry 384-well Black plate (Greiner #781076) using a Labcyte Echo 555 acoustic dispenser. Subsequent reagent additions employed an Agilent Bravo. […] After equilibration, 2 μL of 10×ATP in 1× assay buffer was added to initiate the kinase reaction and the plates were shaken and then incubated at room temperature for 120 minutes. […] Plates were shaken and centrifuged and then incubated 60 minutes at room temperature and then read on a Perkin Elmer Envision (λex=337 nm, λem=665 and 615 nm, TRF delay time=20 μs). HTRF signal=10,000*665 nm reading/615 nm reading. After normalization to untreated controls, the percent inhibition of the HTRF signal at each compound concentration was calculated. The plot of percent inhibition versus the log of compound concentration was fit with a 4-parameter dose response equation to calculate IC50 values.
Final Reaction Conditions were:
Examples of the instant invention were evaluated in JAK1 and JAK2 in vitro binding assays.

JAK1 = JAK1 (Homo sapiens (Human), UniProt P23458); assay: Jak biochemical HTRF assay, JAK1; conditions: HTRF biochemical assay, recombinant GST-tagged catalytic domain; read-out: JAK1 IC50
JAK1, sequence (P23458 875-1153): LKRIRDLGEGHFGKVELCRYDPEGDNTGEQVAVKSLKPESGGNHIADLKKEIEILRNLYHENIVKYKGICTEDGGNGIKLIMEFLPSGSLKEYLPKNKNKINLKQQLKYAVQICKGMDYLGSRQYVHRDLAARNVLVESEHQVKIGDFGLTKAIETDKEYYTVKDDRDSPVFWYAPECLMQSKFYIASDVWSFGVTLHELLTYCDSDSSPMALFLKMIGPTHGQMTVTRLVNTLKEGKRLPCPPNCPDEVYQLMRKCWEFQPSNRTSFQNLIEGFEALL

JAK2, sequence (O60674 849-1124): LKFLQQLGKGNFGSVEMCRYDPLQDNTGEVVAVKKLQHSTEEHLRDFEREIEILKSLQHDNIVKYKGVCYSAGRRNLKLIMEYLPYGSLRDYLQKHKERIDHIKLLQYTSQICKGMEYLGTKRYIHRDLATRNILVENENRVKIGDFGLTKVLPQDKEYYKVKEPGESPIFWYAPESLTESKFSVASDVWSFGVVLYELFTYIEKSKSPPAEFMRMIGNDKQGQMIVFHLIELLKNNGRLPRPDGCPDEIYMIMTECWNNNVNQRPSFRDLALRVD

SMILES	IC50 (JAK2) [nM]	IC50 (JAK1) [nM]
N#C[C@H]1CCCC[C@@H]1n1nc(Nc2cccc([C@@H](N)C(F)(F)F)c2)c2c(=O)[nH]ccc21 [Example 7-2, (1S,2S)-2-[3-({3-[(1R)-1-amino-2,2,2-trifluoroethyl]phenyl}amino)-4-oxo-4,5-dihydro-1H-pyrazolo[4,3-c]pyridin-1-yl]cyclohexanecarbonitrile]	2.2	0.26
CC(C)(C)NS(=O)(=O)c1ccc(Nc2nn([C@H]3CCCC[C@@H]3C#N)c3cc[nH]c(=O)c23)cc1 [Example 3-140, N-tert-butyl-4-({1-[(1S,2S)-2-cyanocyclohexyl]-4-oxo-4,5-dihydro-1H-pyrazolo[4,3-c]pyridin-3-yl}amino)benzenesulfonamide]	0.43	0.17
Cc1cc(Nc2nn([C@H]3CCCCC[C@@H]3C#N)c3cc[nH]c(=O)c23)ccc1C(=O)N1CCCC1 (single isomer, unassigned) [Example 15-47, (1S,2S or 1R,2R)-2-(3-{[3-methyl-4-(pyrrolidin-1-ylcarbonyl)phenyl]amino}-4-oxo-4,5-dihydro-1H-pyrazolo[4,3-c]pyridin-1-yl)cycloheptanecarbonitrile]	14	19
COCCC(C)(C)N1Cc2cc(Nc3nn([C@H]4CCCC[C@@H]4C#N)c4cc[nH]c(=O)c34)ccc2S1(=O)=O [Example 3-161, (1S,2S)-2-(3-{[2-(3-methoxy-1,1-dimethylpropyl)-1,1-dioxido-2,3-dihydro-1,2-benzisothiazol-5-yl]amino}-4-oxo-4,5-dihydro-1H-pyrazolo[4,3-c]pyridin-1-yl)cyclohexanecarbonitrile]	0.15	0.067
CN1Cc2cc(Nc3nn([C@H]4CCC[C@@H]4C#N)c4cc[nH]c(=O)c34)ccc2S1(=O)=O [Example 3-102, (1S,2S)-2-{3-[(2-methyl-1,1-dioxido-2,3-dihydro-1,2-benzisothiazol-5-yl)amino]-4-oxo-4,5-dihydro-1H-pyrazolo[4,3-c]pyridin-1-yl}cyclopentanecarbonitrile]	0.66	0.051
N#C[C@H]1CCC[C@@H]1n1nc(Nc2ccc(C(O)C(F)(F)F)cc2)c2c(=O)[nH]ccc21 (stereo partly drawn) [Example 3-98, (1S,2S)-2-(4-oxo-3-{[4-(2,2,2-trifluoro-1-hydroxyethyl)phenyl]amino}-4,5-dihydro-1H-pyrazolo[4,3-c]pyridin-1-yl)cyclopentanecarbonitrile]	0.53	0.075
Cn1ccc(NC(=O)Cc2cccc(Nc3nn([C@@H]4CCCC[C@H]4C#N)c4cc[nH]c(=O)c34)c2)n1 [Example 3-15, 2-[3-({1-[(1R,2R)-2-cyanocyclohexyl]-4-oxo-4,5-dihydro-1H-pyrazolo[4,3-c]pyridin-3-yl}amino)phenyl]-N-(1-methyl-1H-pyrazol-3-yl)acetamide]	30	14
N#C[C@H]1C[C@H](N2CCC2)CC[C@@H]1n1nc(Nc2ccc(Cl)c(F)c2)c2c(=O)[nH]ccc21 [Example 5-3, (1S,2S,5R)-5-(azetidin-1-yl)-2-(3-((4-chloro-3-fluorophenyl)amino)-4-oxo-4,5-dihydro-1H-pyrazolo[4,3-c]pyridin-1-yl)cyclohexanecarbonitrile]	40	1.7
CN(C(C)(C)C)S(=O)(=O)c1ccc(Nc2nn([C@@H]3CCCCC[C@H]3C#N)c3cc[nH]c(=O)c23)cc1 (single isomer, unassigned) [Example 15-51, N-tert-butyl-4-({1-[(1R,2R or 1S,2S)-2-cyanocycloheptyl]-4-oxo-4,5-dihydro-1H-pyrazolo[4,3-c]pyridin-3-yl}amino)-N-methylbenzenesulfonamide]	0.37	0.23
N#C[C@H]1CCCC[C@@H]1n1nc(Nc2ccc3c(c2)CC2(CCOCC2)S3(=O)=O)c2c(=O)[nH]ccc21 [Example 21-3, (1S,2S)-2-{3-[(1,1-dioxido-2′,3′,5′,6′-tetrahydro-3H-spiro[1-benzothiophene-2,4′-pyran]-5-yl)amino]-4-oxo-4,5-dihydro-1H-pyrazolo[4,3-c]pyridin-1-yl}cyclohexanecarbonitrile]	0.18	0.069
N#C[C@H]1CCCCC[C@@H]1n1nc(Nc2ccc3c(c2)CN(C2CCOCC2)S3(=O)=O)c2c(=O)[nH]ccc21 (single isomer, unassigned) [Example 15-54, (1S,2S or 1R,2R)-2-(3-{[1,1-dioxido-2-(tetrahydro-2H-pyran-4-yl)-2,3-dihydro-1,2-benzisothiazol-5-yl]amino}-4-oxo-4,5-dihydro-1H-pyrazolo[4,3-c]pyridin-1-yl)cycloheptanecarbonitrile]	0.4	0.081
N#C[C@H]1CCCC[C@@H]1n1nc(Nc2ccccc2)c2c(=O)[nH]ccc21 [Example 3-25, (1S,2S)-2-[4-oxo-3-(phenylamino)-4,5-dihydro-1H-pyrazolo[4,3-c]pyridin-1-yl]cyclohexanecarbonitrile]	3.2	0.45
CC1(C)C(=O)c2cc(Nc3nn([C@H]4CCCC[C@@H]4C#N)c4cc[nH]c(=O)c34)ccc2S1(=O)=O [Example 3-171, (1S,2S)-2-{3-[(2,2-dimethyl-1,1-dioxido-3-oxo-2,3-dihydro-1-benzothiophen-5-yl)amino]-4-oxo-4,5-dihydro-1H-pyrazolo[4,3-c]pyridin-1-yl}cyclohexanecarbonitrile]	5.5	1.16
N#C[C@H]1CCCC[C@@H]1n1nc(Nc2cc(F)cc(CN)c2)c2c(=O)[nH]ccc21 [Example 6-3, (1S,2S)-2-(3-((3-(aminomethyl)-5-fluorophenyl)amino)-4-oxo-4,5-dihydro-1H-pyrazolo[4,3-c]pyridin-1-yl)cyclohexanecarbonitrile]	2.3	1.4
N#C[C@@H]1C[C@H](N2CCC2)CC[C@H]1n1nc(Nc2ccc(C(F)(F)F)cc2)c2c(=O)[nH]ccc21 [Example 5-10, (1R,2R,5R)-5-(azetidin-1-yl)-2-(4-oxo-3-((4-(trifluoromethyl)phenyl)amino)-4,5-dihydro-1H-pyrazolo[4,3-c]pyridin-1-yl)cyclohexanecarbonitrile]	940	37
N#C[C@H]1CCCC[C@@H]1n1nc(Nc2ccc(-c3ncco3)cc2)c2c(=O)[nH]ccc21 [Example 15-1, (1S,2S)-2-(3-{[4-(1,3-Oxazol-2-yl)phenyl]amino}-4-oxo-4,5-dihydro-1H-pyrazolo[4,3-c]pyridin-1-yl)cyclohexanecarbonitrile]	1.9	0.13
N#C[C@H]1CCCC[C@@H]1n1nc(Nc2ccc(C3(C(F)(F)F)CC3)cc2)c2c(=O)[nH]ccc21 [Example 15-19]	8.1	1
N#C[C@H]1CCCC[C@@H]1n1nc(Nc2ccc(CNC(=O)c3ncccn3)cc2)c2c(=O)[nH]ccc21 [Example 3-30, N-[4-({1-[(1S,2S)-2-cyanocyclohexyl]-4-oxo-4,5-dihydro-1H-pyrazolo[4,3-c]pyridin-3-yl}amino)benzyl]pyrimidine-2-carboxamide]	2	0.29
CC(C)(C)OC(=O)NCc1cc(Nc2nn([C@H]3CCCC[C@@H]3C#N)c3cc[nH]c(=O)c23)ccc1F [Example 3-35, tert-butyl [5-({1-[(1S,2S)-2-cyanocyclohexyl]-4-oxo-4,5-dihydro-1H-pyrazolo[4,3-c]pyridin-3-yl}amino)-2-fluorobenzyl]carbamate]	4.7	3.2
CN(C(C)(C)C)S(=O)(=O)c1ccc(Nc2nn([C@H]3CCCC[C@@H]3C#N)c3cc[nH]c(=O)c23)cc1 [Example 3-142, N-tert-butyl-4-({1-[(1S,2S)-2-cyanocyclohexyl]-4-oxo-4,5-dihydro-1H-pyrazolo[4,3-c]pyridin-3-yl}amino)-N-methylbenzenesulfonamide]	0.68	0.29
N#C[C@H]1CCCC[C@@H]1n1nc(Nc2ccc3c(c2)CN(C2CCOCC2)C3=O)c2c(=O)[nH]ccc21 [Example 15-59, (1S,2S)-2-(4-oxo-3-{[1-oxo-2-(tetrahydro-2H-pyran-4-yl)-2,3-dihydro-1H-isoindol-5-yl]amino}-4,5-dihydro-1H-pyrazolo[4,3-c]pyridin-1-yl)cyclohexanecarbonitrile]	0.41	0.078
N#C[C@H]1CCCC[C@@H]1n1nc(Nc2ccc(C(=O)N3CCCC3)cc2)c2c(=O)[nH]ccc21 [Example 3-44, (1S,2S)-2-(4-oxo-3-{[4-(pyrrolidin-1-ylcarbonyl)phenyl]amino}-4,5-dihydro-1H-pyrazolo[4,3-c]pyridin-1-yl)cyclohexanecarbonitrile]	4.8	1.4
N#C[C@H]1CCCC[C@@H]1n1nc(Nc2cccc(CNCC(F)(F)F)c2)c2c(=O)[nH]ccc21 [Example 3-39, (1S,2S)-2-{4-oxo-3-[(3-{[(2,2,2-trifluoroethyl)amino]methyl}phenyl)amino]-4,5-dihydro-1H-pyrazolo[4,3-c]pyridin-1-yl}cyclohexanecarbonitrile]	1.8	0.64
